Converted amounts (≈) assume the structure as drawn. Like-named read-outs stand apart in the source and are kept apart here.
What was measured:
[1] = tested on: Staphylococcus aureus 39881 (Methicillin-resistant); assay: Mouse protection test, S. aureus 39881 (methicillin-resistant) infection; format: in vivo, ICR mice; Staphylococcus aureus; conditions: for Survivors/Total: two doses; for ED50: Staphylococcus aureus, 168 h, two doses one-half and four hours postinfection, read-out: Protective Dose 50% (95% Confidence Limits)
Description: (§1) ICR mice, female, 18-20 grams each.
(§2) Solutions of Win 52,522 and Win 35,439 were prepared by dissolving the appropriate weight of drug in 0.3 to 0.4 ml of 1 N NaOH and then bringing the solutions to the desired volume with distilled water. Methicillin and vancomycin were dissolved directly in distilled water.
The culture was streaked onto three Brain Heart Infusion Agar plates and incubated 16 hours at 37° C. The cells were washed off each plate with five ml of saline and the cell suspension was shaken with glass beads for two minutes on a paint shaker. The suspension was diluted with saline so that a […] gave a 44% T reading on a B+L Spectronic 20 (650 nm) calibrated with saline. The stock suspension was diluted 1:24 (10 ml stock suspension+230 ml 5% mucin) to obtain the test inoculum containing 1.55×10^9 cells/ml.
(§3) Mice were inoculated intraperitoneally with 0.5 ml of the bacterial test inoculum.
Mice were medicated twice: at one-half and four hours postinfection. The drugs were administered by both subcutaneous (0.2 ml) and oral (0.5 ml) routes.
(§4) Deaths were recorded daily for seven days for all tests. Fifty percent protective dose values (PD50's) were calculated using probit analysis [SAS Users Guide: Statistics, 1982 Edition, SAS Institute, Inc., Cary, N.C.].

[2] = tested on: S. edidermidis; assay: In vitro MIC/MBC summary (Table II); format: cell-based, S. epidermidis; conditions: Staphylococcus epidermidis, 5 S. edidermidis strains
Description: (§5) Win 52,522 and Win 35,439 were solubilized in 0.1 ml of 0.5 N NaOH/mg of compound and diluted in sterile distilled water to 160 mcg/ml. Vancomycin and methicillin were solubilized in sterile distilled water to 1250 mcg/ml of base compound. The stock solutions were sterilized by filtration through membrane filters with a 0.45 μm pore size.
(§6) The bacterial cultures listed in Table I (hereinbelow) were grown overnight at 37° C. in MHB for all cultures except the Streptococcus strains. These were grown in BHI+10% NHS. The overnight broth cultures were adjusted to an optical density of 0.10 (650 nm, B L Spectronic 20) in sterile distilled water and subsequently diluted to 6.7×10^6 cells/ml in MHB or BHI+1% NHS.
(§7) Serial two-fold dilutions of the compound solutions were prepared in MHB (or in BHI+1% NHS for tests with Streptococci) and dispensed into 96-well microtiter trays in a volume of 0.1 ml/well using a Sandy Springs (Bellco Glass Co.) dispenser. The trays were then inoculated with 0.0015 ml of a suspension containing 6.7×10^6 cells/ml of the appropriate inoculum using a MIC-2000 inoculator (Dynatech Corp.) resulting in a final inoculum of approximately 1×10^4 cells/well or 1×10^5 cells/ml. The trays were incubated at 37° C. for 18-20 hours and the minimal inhibitory concentration (MIC), defined as the lowest concentration of compound to inhibit visible bacterial growth, was recorded.
(§8) After the MIC values were recorded, the contents in the microtiter trays were thoroughly mixed on a Bellco Mini-orbital Shaker (Bellco Glass Co.) for 3 min. at a setting of 8. A portion (0.0015 ml) from each well was then transferred via an MIC-2000 inoculator to plates containing MHA or BHI agar+10% NHS. The plates were incubated at 37° C. for 18-20 hrs. The minimal bactericidal concentration (MBC), defined as the lowest concentration of compound that prevented the formation of a recognizable colony on the agar surface, was recorded.

[3] = tested on: S. aureus 13-8-A; assay: In vitro antibacterial MIC/MBC test; format: cell-based; conditions: Staphylococcus aureus, 138A, S. aureus 13-8-A
Outline: (§9)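 In this microdilution assay, strains are exposed to two-fold compound dilutions in MHB (streptococci in BHI+1% NHS) at roughly 1×10^4 cells per well for 18-20 hours at 37° C. Visible growth defines the MIC. Subculture onto MHA or BHI agar+10% NHS defines the MBC.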

[4] = tested on: S. enterococcus 0-2-13; assay: In vitro antibacterial MIC/MBC test; format: cell-based; conditions: 0213, S. enterococcus 0-2-13
Outline: as §9

[5] = tested on: S. aureus 34-81; assay: In vitro antibacterial MIC/MBC test; format: cell-based; conditions: Staphylococcus aureus, 3481, S. aureus 34-81
Outline: as §9

[6] = tested on: S. aureus VA16951; assay: In vitro antibacterial MIC/MBC test; format: cell-based; conditions: Staphylococcus aureus, S. aureus VA16951
Outline: as §9

[7] = tested on: S. aureus 10-81; assay: In vitro antibacterial MIC/MBC test; format: cell-based; conditions: Staphylococcus aureus, 1081, S. aureus 10-81
Outline: as §9

[8] = tested on: S. pneumoniae Type I; assay: In vitro antibacterial MIC/MBC test; format: cell-based; conditions: Streptococcus pneumoniae, S. pneumoniae Type I
Outline: as §9

[9] = tested on: S. faecalis (8043); assay: In vitro antibacterial MIC/MBC test; format: cell-based; conditions: Enterococcus faecalis, ATCC8043, S. faecalis ATCC No. 8043
Outline: as §9

[10] = tested on: Staphylococcus aureus Smith; assay: Mouse protection test, S. aureus Smith infection, single dose; format: in vivo, ICR mice; Staphylococcus aureus; conditions: single dose; for ED50: Staphylococcus aureus, 168 h, read-out: Protective Dose 50% (95% Confidence Limits)
Description: as §1, §2
Two and one-half ml of pool were added to 247.5 ml of 5% gastric mucin to provide the test inoculum containing 2.1×10^4 cells/ml.
as §3
1. Single dose test--Mice were medicated subcutaneously or orally once (0.5 ml) one-half hour postinfection.
as §4

[11] = tested on: Streptococcus sp.; assay: In vitro MIC/MBC summary (Table II); format: cell-based; conditions: 9 Streptococcus sp. strains
Description: as §5, §6, §7, §8

[12] = tested on: S. aureus; assay: In vitro MIC/MBC summary (Table II); format: cell-based; conditions: Staphylococcus aureus
Description: as §5, §6, §7, §8

Structure (SMILES): CCn1cc(C(=O)O)c(=O)c2ccc(-c3cc(C)nc(C)c3)cc21 [Win 35,439, 1-ethyl-1,4-dihydro-7-(2,6-dimethyl-4-pyridinyl)-4-oxo-3-quinolinecarboxylic acid]
- Survivors/Total ([1]; 1.56 mg/kg po): 1/10
- Survivors/Total ([1]; 1.56 mg/kg sc): 0/10
- Survivors/Total ([1]; 3.13 mg/kg po): 0/10
- Survivors/Total ([1]; 3.13 mg/kg sc): 0/10
- Survivors/Total ([1]; 6.25 mg/kg po): 3/10
- Survivors/Total ([1]; 6.25 mg/kg sc): 9/10
- Survivors/Total ([1]; 12.5 mg/kg po): 10/10
- Survivors/Total ([1]; 12.5 mg/kg sc): 7/10
- ED50 ([1]; po): 7.2 mg/kg
- ED50 ([1]; sc): ~4.9 mg/kg
- MBC ([2]; read-out: MBC 50%): 0.25 µg/mL (≈ 0.776 µM)
- MBC ([2]; read-out: MBC 90%): 0.25 µg/mL (≈ 0.776 µM)
- MBC ([2]; read-out: MBC Range): 0.25 to 0.5 µg/mL (≈ 0.776 to 1.55 µM)
- MIC50 ([2]; read-out: MIC 50%): 0.25 µg/mL (≈ 0.776 µM)
- MIC90 ([2]; read-out: MIC 90%): 0.25 µg/mL (≈ 0.776 µM)
- MIC ([2]; read-out: MIC Range): 0.25 to 0.5 µg/mL (≈ 0.776 to 1.55 µM)
- MBC ([3]; read-out: MBC): 0.125 µg/mL (≈ 0.388 µM)
- MIC ([3]; read-out: MIC): 0.06 µg/mL (≈ 0.186 µM)
- MBC ([4]; read-out: MBC): 2 µg/mL (≈ 6.2 µM)
- MIC ([4]; read-out: MIC): 2 µg/mL (≈ 6.2 µM)
- MBC ([5]; read-out: MBC): 0.06 µg/mL (≈ 0.186 µM)
- MIC ([5]; read-out: MIC): 0.06 µg/mL (≈ 0.186 µM)
- MBC ([6]; read-out: MBC): 0.06 µg/mL (≈ 0.186 µM)
- MIC ([6]; read-out: MIC): 0.06 µg/mL (≈ 0.186 µM)
- MBC ([7]; read-out: MBC): 0.125 µg/mL (≈ 0.388 µM)
- MIC ([7]; read-out: MIC): 0.125 µg/mL (≈ 0.388 µM)
- MBC ([8]; read-out: MBC): 2 µg/mL (≈ 6.2 µM)
- MIC ([8]; read-out: MIC): 2 µg/mL (≈ 6.2 µM)
- MBC ([9]; read-out: MBC): 2 µg/mL (≈ 6.2 µM)
- MIC ([9]; read-out: MIC): 1 µg/mL (≈ 3.1 µM)
- Survivors/Total ([10]; 0.39 mg/kg po): 0/10
- Survivors/Total ([10]; 0.78 mg/kg po): 1/10
- Survivors/Total ([10]; 0.78 mg/kg sc): 1/10
- Survivors/Total ([10]; 1.56 mg/kg po): 0/10
- Survivors/Total ([10]; 1.56 mg/kg sc): 0/10
- Survivors/Total ([10]; 3.13 mg/kg po): 0/10
- Survivors/Total ([10]; 3.13 mg/kg sc): 6/10
- Survivors/Total ([10]; 6.25 mg/kg po): 7/10
- Survivors/Total ([10]; 6.25 mg/kg sc): 10/10
- ED50 ([10]; po): ~5.5 mg/kg
- ED50 ([10]; sc): 2.9 mg/kg
- MBC ([11]; read-out: MBC 50%): 2 µg/mL (≈ 6.2 µM)
- MBC ([11]; read-out: MBC 90%): > 16 µg/mL
- MIC50 ([11]; read-out: MIC 50%): 2 µg/mL (≈ 6.2 µM)
- MIC90 ([11]; read-out: MIC 90%): 4 µg/mL (≈ 12.4 µM)
- MIC ([11]; read-out: MIC Range): 0.5 to 4 µg/mL (≈ 1.55 to 12.4 µM)
- MBC ([12]; read-out: MBC 50%): 0.25 µg/mL (≈ 0.776 µM)
- MBC ([12]; read-out: MBC 90%): 0.5 µg/mL (≈ 1.55 µM)
- MBC ([12]; read-out: MBC Range): 0.125 to 0.5 µg/mL (≈ 0.388 to 1.55 µM)
- MIC50 ([12]; 15 S. aureus strains, read-out: MIC 50%): 0.06 µg/mL (≈ 0.186 µM)
- MIC90 ([12]; 15 S. aureus strains, read-out: MIC 90%): 0.125 µg/mL (≈ 0.388 µM)
- MIC ([12]; 15 S. aureus strains, read-out: MIC Range): 0.03 to 0.125 µg/mL (≈ 0.0931 to 0.388 µM)
